{"source": "paper PMC8800111", "about": "(The Journal of Biological Chemistry, 2021)", "key": {"[1]": {"test_system": "STAT3 transcriptional activity in U3A cells", "test": "STAT3-dependent luciferase reporter assay", "type": "cell-based, human", "procedure": "STAT3-dependent luciferase activity was then used as a measure of STAT3 transcriptional activity.\n(§1) Cells were stimulated with 10 ng/ml interleukin 6 (Peprotech) or 10 ng/ml OSM (Peprotech). Cells were stimulated for 15 min for whole cell lysate immunoblotting, 60 to 90 min for qRT–PCR, and 5 to 6 h for luciferase reporter assays.\nU3A cells (3 × 10^3) were plated in white opaque 96-well plates and allowed to adhere overnight. For siRNA-mediated knockdown, cells were left in the incubator for 48 h. For drug-mediated inhibition, cells were pretreated with compound for 1 h. Cells were then stimulated with cytokine for 5 to 6 h to activate STAT3. Luciferase activity was detected using the Bright-Glo Luciferase Assay System (Promega) and quantitated using a Luminoskan Ascent Microplate Reader (Labsystems)."}, "[2]": {"test_system": "pSTAT3 in MDA-MB-468 cells", "test": "STAT3 tyrosine phosphorylation by immunoblotting", "type": "cell-based, human", "details": "24 h, immunoblot"}, "[3]": {"test_system": "STAT3 target genes in U3A cells", "test": "STAT3 target gene expression by qRT-PCR in U3A cells", "type": "cell-based, human"}, "[4]": {"test_system": "polar metabolites of MDA-MB-468 cells", "test": "LC/MS-based metabolite profiling", "type": "cell-based, human", "details": "MDA-MB-468, 24 h, 10 μM pyrimethamine or 0.05 μM methotrexate"}, "[5]": {"test": "Solubility limit of folic acid in cell experiments", "type": "physicochemical", "details": "culture media; read-out: maximum concentration testable because of solubility limitations"}, "MDA-MB-468 cells": {"test_system": "MDA-MB-468 cells", "test": "Viability assay (CellTiter-Glo, number of viable cells)", "type": "cell-based, human", "details": "300 μg/ml folinic acid, 48 h", "procedure": "We specifically hypothesized that folinic acid would prevent pyrimethamine-mediated loss of viability and loss of STAT3 transcriptional activity by bypassing DHFR and restoring the folate-dependent processes required for STAT3 transcriptional activity. […] Since MDA-MB-468 cells are dependent on STAT3 activity for survival, loss of viability can reflect STAT3 inhibition.\nCells (3–5 × 10^3) were plated in white opaque 96-well plates. The next day, cells were treated as indicated. ATP levels were detected at the indicated time points as a proxy for number of viable cells using the CellTiter-Glo Luminescent Cell Viability Assay (Promega). Luminescence was measured using a Luminoskan Ascent Microplate Reader (Labsystems)."}, "[6]": {"test_system": "STAT3 target genes in SKBR3 cells", "test": "STAT3 target gene expression by qRT-PCR in SKBR3 cells", "type": "cell-based, human", "details": "300 μg/ml folinic acid", "procedure": "as §1\nTotal RNA was extracted from cells using the RNeasy Mini Kit (Qiagen). Complementary DNA was generated using the TaqMan Reverse Transcription Reagents (Invitrogen). qPCR was performed in triplicate or quadruplicate using the Power SYBR Green PCR Master Mix (Invitrogen) on a 7500 Real-Time PCR System (Applied Biosystems) or a QuantStudio 6 Flex Real-Time PCR System (Applied Biosystems). Specificity of amplification was confirmed by melting curve analysis. Cycle threshold (CT) values for target genes were normalized to the endogenous reference gene GAPDH. Primer sequences (Table S3) were designed from the University of California Santa Cruz genome browser reference mRNA sequences using Primer3 ([43])."}, "[7]": {"test_system": "STAT3 target genes in MDA-MB-468 cells", "test": "STAT3 target gene expression by qRT-PCR in MDA-MB-468 cells", "type": "cell-based, human", "details": "MDA-MB-468, 10 μM, 24 h"}}}
{"compound": "CN(Cc1cnc2nc(N)nc(N)c2n1)c1ccc(C(=O)N[C@@H](CCC(=O)O)C(=O)O)cc1", "note": "[methotrexate]", "values": [{"measurement": "OSM-stimulated STAT3 activity (luciferase)", "setting": "[1]; 0.5 and 1 μM, 1 h pretreatment, OSM 5 h", "result": "decreased"}, {"measurement": "total / constitutive STAT3 tyrosine phosphorylation (pSTAT3)", "setting": "[2]", "result": "decrease"}, {"measurement": "OSM-stimulated expression of BCL6 and STAT3", "setting": "[3]; 1 μM 1 h, 10 ng/ml OSM 90 min", "result": "significantly reduced"}, {"measurement": "deoxyuridine monophosphate level compared with DMSO or ruxolitinib", "setting": "[4]", "result": "significantly accumulated"}, {"measurement": "purine synthesis intermediates 5-aminoimidazole-4-carboxamide ribonucleotide and glycineamide ribonucleotide", "setting": "[4]", "result": "significant increase"}]}
{"compound": "Nc1nc2ncc(CNc3ccc(C(=O)N[C@@H](CCC(=O)O)C(=O)O)cc3)nc2c(=O)[nH]1", "note": "[folic acid]", "values": [{"measurement": "solubility", "setting": "[5]", "result": 10, "unit": "µg/mL"}]}
{"compound": "Nc1nc(=O)c2c([nH]1)NCC(CNc1ccc(C(=O)N[C@@H](CCC(=O)O)C(=O)O)cc1)N2C=O", "note": "(mixture of isomers) [folinic acid]", "values": [{"measurement": "effect on TG101-dependent loss of viable cells", "setting": "MDA-MB-468 cells", "result": "very little effect"}, {"measurement": "effect on pyrimethamine-dependent and methotrexate-dependent decreases in the number of viable cells", "setting": "MDA-MB-468 cells", "result": "almost completely prevented"}, {"measurement": "rescue of the effect of methotrexate on STAT3-dependent luciferase", "setting": "[1]; 1 μM methotrexate", "result": "able to rescue"}, {"measurement": "effect on TG101-mediated loss of STAT3-dependent luciferase", "setting": "[1]; 10 μM TG101", "result": "no effect"}, {"measurement": "effect on the ability of pyrimethamine to inhibit OSM-stimulated STAT3 transcriptional activity", "setting": "[1]; 10 μM pyrimethamine, tested concentrations of folate", "result": "significantly reduced"}, {"measurement": "effect on pyrimethamine-mediated loss of OSM-stimulated BCL6 expression", "setting": "[6]", "result": "partially prevented"}, {"measurement": "effect on pyrimethamine-mediated loss of OSM-stimulated BCL6 expression", "setting": "[3]; 300 μg/ml folinic acid", "result": "completely prevented"}]}
{"compound": "Cc1cnc(Nc2ccc(OCCN3CCCC3)cc2)nc1Nc1cccc(S(=O)(=O)NC(C)(C)C)c1", "note": "[TG101, TG101348]", "values": [{"measurement": "SOCS3 expression in the presence of folinic acid", "setting": "[7]; 300 μg/ml folinic acid", "result": "still reduced"}, {"measurement": "SOCS3 expression in the absence of folinic acid", "setting": "[7]", "result": "significantly reduced"}]}
{"compound": "Cc1cn([C@H]2C[C@H](O)[C@@H](CO)O2)c(=O)[nH]c1=O", "note": "[thymidine]", "values": [{"measurement": "effect on pyrimethamine inhibition of STAT3 transcriptional activity (viable cells, luciferase, target genes)", "setting": "[1]; thymidine added with 10 μM pyrimethamine", "result": "reduced the ability"}, {"measurement": "rescue of methotrexate-mediated loss of STAT3 activity", "setting": "[1]; thymidine added with methotrexate", "result": "unable to rescue"}]}
